Data as given in US20190075791A1, “ANTIMICROBIAL SURFACE COATING MATERIAL” (YEDITEPE UNIVERSITESI, priority 2015, published 2019).

Assays:
Assay in all cases: Modified disk diffusion method (chemicals)
Format in all cases: cell-based
[1] = tested on: Pseudomonas aeruginosa; details: disc diffusion on Nutrient Agar, 24 hours at 36±1 °C, PC = ofloxacin 10 μg/disc
Protocol: (§1) Modified disk diffusion method: Standard NCCLS disc diffusion method was used upon being modified in order to determine the antimicrobial activity of CG, T and ZP on each microorganism that is being tested. The 100 μl solution including 10^8 cfu/ml bacteria, 10^6 cfu/ml yeast and 10^4 spor/ml fungi was prepared with fresh cultures and inoculated with spreading method on Nutrient Agar (NA), Sabouraud Dextrose Agar (SDA) and Potato Dextrose Agar (PDA), respectively. 20 μl of sterile water was dropped on the empty discs, and was immersed into powder triclosan. 20 μl of chlorhexidine gluconate and zinc pyrithione were drawn and impregnated to the empty discs and placed on the inoculated petri dishes. Empty discs with 20 μl drop of sterile water were used as negative control. Ofloxacin (10 μg/disc) and nystatin (30 μg/disc) were used as positive control for bacteria and fungi, respectively. The petri dishes, which were inoculated and on which modified disc diffusion method was applied, were incubated for 24 hours for bacteria and 48 hours for yeasts at 36±1 ° C., and for 72 hours for fungi at 25±1 ° C. […] All tests were repeated at least twice.

[2] = tested on: Staphylococcus aureus; details: disc diffusion on Nutrient Agar, 24 hours at 36±1 °C, PC = ofloxacin 10 μg/disc
Protocol: as §1

[3] = tested on: Escherichia coli; details: disc diffusion on Nutrient Agar, 24 hours at 36±1 °C, PC = ofloxacin 10 μg/disc
Protocol: as §1

[4] = tested on: Candida albicans; details: disc diffusion on Sabouraud Dextrose Agar, 48 hours at 36±1 °C, PC = nystatin 30 μg/disc
Protocol: as §1

[5] = tested on: Vancomycin-resistant Enterococcus (VRE); details: disc diffusion on Nutrient Agar, 24 hours at 36±1 °C, PC = ofloxacin 10 μg/disc
Protocol: as §1

[6] = tested on: Methicillin-resistant Staphylococcus aureus (MRSA); details: disc diffusion on Nutrient Agar, 24 hours at 36±1 °C, PC = ofloxacin 10 μg/disc
Protocol: as §1

[7] = tested on: Fusarium oxysporum; details: disc diffusion on Potato Dextrose Agar, 72 hours at 25±1 °C, PC = nystatin 30 μg/disc
Protocol: as §1

[8] = tested on: Aspergillus spp.; details: disc diffusion on Potato Dextrose Agar, 72 hours at 25±1 °C, PC = nystatin 30 μg/disc
Protocol: as §1

[9] = tested on: Candida glabrata; details: disc diffusion on Sabouraud Dextrose Agar, 48 hours at 36±1 °C, PC = nystatin 30 μg/disc
Protocol: as §1

[10] = tested on: Penicillium spp.; details: disc diffusion on Potato Dextrose Agar, 72 hours at 25±1 °C, PC = nystatin 30 μg/disc
Protocol: as §1

[11] = tested on: Botrytis cinerea; details: disc diffusion on Potato Dextrose Agar, 72 hours at 25±1 °C, PC = nystatin 30 μg/disc
Protocol: as §1

Compound	Antimicrobial activity (inhibition zone) [1]	Antimicrobial activity (inhibition zone) [2]	Antimicrobial activity (inhibition zone) [3]	Antimicrobial activity (inhibition zone) [4]	Antimicrobial activity (inhibition zone) [5]	Antimicrobial activity (inhibition zone) [6]	Antimicrobial activity (inhibition zone) [7]	Antimicrobial activity (inhibition zone) [8]	Antimicrobial activity (inhibition zone) [9]	Antimicrobial activity (inhibition zone) [10]	Antimicrobial activity (inhibition zone) [11]
N=C(NCCCCCCNC(=N)NC(=N)Nc1ccc(Cl)cc1)NC(=N)Nc1ccc(Cl)cc1.O=C(O)[C@H](O)[C@@H](O)[C@H](O)[C@H](O)CO.O=C(O)[C@H](O)[C@@H](O)[C@H](O)[C@H](O)CO [CG, Chlorhexidine gluconate]	+	+	+	+	+	+	+	+	+	+	+
Oc1cc(Cl)ccc1Oc1ccc(Cl)cc1Cl [T, Triclosan]	+	+	+	−	+	+	−	−	−	−	−
Zinc Pyrithione [ZP]	+	+	+	+	+	+	+	+	+	+	+
